{
  "source": "patent US10688099B2",
  "about": "“Methods for modulating the amount of RNA transcripts” (PTC Therapeutics, Inc., priority 2013, dated 2020)",
  "key": {"[1]": {"tested_on": "splice junctions in human transcripts, PNN 1-46 cells", "assay": "RNA sequencing, splice-site (splice junction) analysis, Compound vs DMSO control", "type": "cell-based", "experimental": "PNN 1-46 cells derived from a Type I SMA patient were treated with Compound 702 at 500 nM for 24 hours. RNA was purified with the RNeasy Mini Kit (Qiagen) for mRNA sequencing on HiSeq 2500 (Illumina Inc., San Diego, Calif.). The quality of the total RNA was assessed using UV spectrophotometry and agarose gel electrophoresis. Template DNA molecules suitable for cluster generation were prepared from 1 ug of total RNA samples using the TruSeq RNA Sample Preparation Kit v2 (Illumina Inc., San Diego, Calif.) according to the manufacturer's instructions. The size distribution of the libraries was estimated by electrophoresis on Agilent High Sensitivity Bioanalyzer microfluidic chips. The minimum and average sizes of the amplified libraries were determined to be >200 nucleotides and 300-340 nucleotides, respectively. Libraries were quantified using the KAPA Library Quantification Kit (KK4824, Kapa Biosystems, Boston, Mass.). The libraries were pooled at equimolar concentrations and diluted prior to loading onto the flow cell of the HiSeq 2500 (Illumina Inc., San Diego, Calif.) for both clustering and sequencing. The libraries were extended and bridge-amplified to create single sequence clusters using the TruSeq Rapid PE Cluster Kit—HS (Illumina Inc., San Diego, Calif.). Amplified clusters in the flow cell were then sequenced with 50-bp paired-end reads using the TruSeq Rapid SBS Kit—HS (Illumina Inc., San Diego, Calif.) in rapid run mode. Real time image analysis and base calling were performed on the HiSeq 2500 instrument using the HiSeq Sequencing Control Software (HCS). CASAVA software version 1.8 was used for de-multiplexing and production of FASTQ sequence files.\nIn order to estimate gene expression levels, paired-end RNAseq reads were subsequently mapped to RefSeq human transcripts (release 60) and the human genome (hg19) by using the short read aligner Bowtie2 (Langmead et al., 2012. Nature methods 9:357). The number of mapped reads for all transcript variants of a gene (counts) were combined into a single value and normalized denoted as rpkms (number of mapped reads per kilobase transcript per million sequenced reads, (Mortazavi et al., 2008. Nature methods 5:621)). The splice-site analysis was performed by mapping the paired-end RNASeq reads to RefSeq human transcripts using the alignment software GSNAP with default parameters and the option ‘sam-multiple-primaries’ in order to account for reads that were mapped multiple times to different splice variants. The number of reads spanning splice-sites was determined by applying the samtools mpileup software with default parameters for each transcript. Reads having an alignment start or end exactly on the splice-site were excluded from the analysis (Wu et al., 2005, Bioinformatics 21:1859; Wu et al., 2010, Bioinformatics 26:873; Li et al., 2009, Bioinformatics 25:2078). […]"}, "[2]": {"tested_on": "SMN2 FL and SMN2 Δ7 mRNA", "assay": "RT-qPCR analysis of SMN2 full length (FL) and Δ7 mRNAs in cultured cells", "type": "cell-based, human", "conditions": "FIG. 1", "experimental": "Cells are plated at a certain density in an appropriate medium in 96-well flat-bottom plates. The plate is immediately swirled to ensure even distribution of the cells to ensure the formation of an even monolayer of cells and incubated for 6-24 hrs at 37° C. Cells are then treated with serially diluted test compound (e.g., 3.16-fold dilution factor, 0.5% final concentration of DMSO), in duplicate, for desired time under appropriate conditions (e.g., 37° C., 5% CO2, 100% relative humidity). After supernatant removal, cells are lysed (e.g., in Cells-To-Ct lysis buffer, Life Technologies). The levels of RNA of interest, and a reference RNA (e.g., GAPDH mRNA) are quantified (e.g., by using Taqman-based RT-qPCR) by assays designed to detect each mRNA of interest specifically. The forward and reverse primers are used at the appropriate concentration (e.g., 0.1-1 μM), as well as the probe (e.g., 0.1 to 0.3 μM). GAPDH primers are typically at 0.1 μM and the probe at 0.075 μM. RT-qPCR is carried out using an appropriate protocol. One example of such a protocol is the following temperatures for indicated time: Step 1: 48° C. (15 min); Step 2: 95° C. (10 min); Step 3: 95° C. (15 sec); Step 4: 60° C. (1 min); then, repeat Steps 3 and 4 for a total of 40 cycles. Fluorescence is recorded in each cycle at the end of the Step 4 incubation. […] The Ct values for each mRNA are converted to mRNA abundance using actual PCR efficiencies, and may be calculated essentially as described in Liu and Saint (Anal Biochem 302:52). […]\nGM03813 (Coriell Institute) and PNN 1-46 fibroblasts (Columbia University) derived from SMA Type I patients were plated at 5,000 cells/well in 200 μL Dulbecco's modified Eagle's medium (DMEM) with GlutaMAX and 10% fetal bovine serum (FBS) (Life Technologies, Inc.) in 96-well plates, and incubated for 6 hours in a cell culture incubator (37° C., 5% CO2, 100% relative humidity). […] The mRNA levels of SMN2 FL, SMN2 Δ7 and GAPDH were quantified using Taqman-based RT-qPCR and SMN2-specific primers and probes in Table 5 (purchased from Life Technologies, Inc.). […]"}, "[3]": {"conditions": "500 nM vs DMSO control, FIG. 2C"}, "[4]": {"conditions": "SMA Type I patient fibroblasts, treatment for 24 hours"}},
  "data": [
    {"smiles": "CCN1CCC(c2cc(C)c3nc(-c4cc5c(C)nc(C)cn5n4)cc(=O)n3c2)CC1", "note": "[Compound 702]", "values": [
      {"measurement": "effect on STRN3 transcript variants", "setting": "[1]; [3]", "result": "a switch between variants NM_014574 and NM_001083893"},
      {"measurement": "genes to which the splice junctions with p>300 belong", "setting": "[1]; [3]", "result": "SMN2, PDXDC1, STRN3, and pseudogene PDXDC2P"},
      {"measurement": "splice junctions with p>300 (p=Δ×Log2 FC)", "setting": "[1]; [3]", "result": 20, "unit": "splice junctions"},
      {"measurement": "splice junctions with p>300 that belong to PDXDC1, all similarly affected", "setting": "[1]; [3]", "result": 15, "unit": "splice junctions"},
      {"measurement": "splice junctions with p>100 (p=Δ×Log2 FC)", "setting": "[1]; 500 nM vs DMSO control, out of about 300,000 splice junctions analyzed, FIG. 2C", "result": 114, "unit": "splice junctions"},
      {"measurement": "up spl j gene (gene with upregulated splice junctions)", "setting": "[1]; PNN 1-46, 500 nM, 24 hours, splice junctions with p>100, * = pseudogene", "result": "STRN3 and APLP2 and TEX21P* and RCC1 and FOXM1 and VPS29"},
      {"measurement": "splicing alteration of SMN2 transcripts", "setting": "[2]; SMA Type I fibroblast cells (PNN 1-46), 500 nM, 24 hours", "result": "complete splicing alteration of all SMN2 transcripts"},
      {"measurement": "expression of exon 7 lacking (Δ7) mRNA", "setting": "[2]; [4]", "result": "dose dependent expression"},
      {"measurement": "expression of full length (FL) mRNA", "setting": "[2]; [4]", "result": "dose dependent expression"}
    ]}
  ]
}
